Measured values from ChEMBL document CHEMBL1155987, “2,3,4,5-Tetrahydro-1H-pyrido[2,3-b and e][1,4]diazepines as inhibitors of the bacterial enoyl ACP reductase, FabI” (Bioorg Med Chem Lett, 2009).
Values after ≈ are worked out from the molar mass of the structure shown. Active and inactive are the calls of the source. The rule behind the calls is not given here.

What was measured:
[1] = physchem; details: aqueous, pH 7.4
Description: Aqueous solubility at pH 7.4

[2] = tested on: Escherichia coli; assay: microbe, parasite or virus in culture
Description: Antibacterial activity against Escherichia coli efflux pump mutant by microdilution method

[3] = tested on: Staphylococcus aureus; assay: microbe, parasite or virus in culture; details: 29213
Description: Antibacterial activity against Staphylococcus aureus 29213 by microdilution method

[4] = tested on: Staphylococcus aureus; assay: microbe, parasite or virus in culture; details: 43300
Description: Antibacterial activity against methicillin-resistant Staphylococcus aureus 43300 by microdilution method

[5] = physchem; details: aqueous, pH 4
Description: Aqueous solubility at pH 4.0

[6] = tested on: Staphylococcus aureus; assay: microbe, parasite or virus in culture; details: 934335
Description: Antibacterial activity against triclosan-resistant Staphylococcus aureus 934335 by microdilution method

[7] = molecular target: T1, Enoyl-[acyl-carrier-protein] reductase [NADH] FabI (Escherichia coli K-12, UniProt P0AEK4)
T1 sequence (P0AEK4 whole entry): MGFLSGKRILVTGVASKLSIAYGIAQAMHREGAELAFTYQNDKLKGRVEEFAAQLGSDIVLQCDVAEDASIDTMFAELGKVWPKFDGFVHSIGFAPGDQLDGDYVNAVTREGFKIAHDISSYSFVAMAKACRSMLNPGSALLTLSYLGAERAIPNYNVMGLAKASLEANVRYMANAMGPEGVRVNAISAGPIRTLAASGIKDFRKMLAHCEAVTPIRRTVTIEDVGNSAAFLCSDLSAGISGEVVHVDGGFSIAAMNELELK
Description: Inhibition of Escherichia coli FabI

[8] = tested on: Staphylococcus aureus; assay: Antibacterial activity against Staphylococcus aureus 29213 infected neutropenic mouse thigh model assessed as change in CFU at 100 mg/kg, po after 24 hrs; type: functional, organism-based; set-up: dose 100 mg/kg

## Cc1c(CN(C)C(=O)/C=C/c2cnc3c(c2)NCCC(=O)N3)sc2ccc(F)cc12
[1]
  solubility: 38 µg/mL (≈ 89.5 µM)
[2]
  MIC: 1 µg/mL (≈ 2.36 µM)
[3]
  MIC: ≤ 0.016 µg/mL
[4]
  MIC: ≤ 0.016 µg/mL
[5]
  solubility: 31 µg/mL (≈ 73 µM)
[6]
  MIC: 0.125 µg/mL (≈ 0.294 µM)
[7]
  IC50: 25 nM

## Cc1c(CN(C)C(=O)/C=C/c2cnc3c(c2)CCC(=O)N3)sc2ccccc12
[1]
  solubility: 0.3 µg/mL (≈ 0.766 µM)
[2]
  MIC: 4 µg/mL (≈ 10.2 µM)
[3]
  MIC: 0.125 µg/mL (≈ 0.319 µM)
[4]
  MIC: ≤ 0.063 µg/mL
[5]
  solubility: 0.2 µg/mL (≈ 0.511 µM)
[6]
  MIC: 4 µg/mL (≈ 10.2 µM)
[7]
  IC50: 64 nM

## CN1CC(=O)Nc2ncc(/C=C/C(=O)N(C)Cc3cc4ccccc4n3C)cc2C1
[1]
  solubility: 9.7 µg/mL (≈ 24 µM)
[2]
  MIC: > 32 µg/mL
[3]
  MIC: 4 µg/mL (≈ 9.91 µM)
[4]
  MIC: 0.5 µg/mL (≈ 1.24 µM)
[5]
  solubility: 73 µg/mL (≈ 181 µM)
[6]
  MIC: 8 µg/mL (≈ 19.8 µM)

## Cc1c(CN(C)C(=O)/C=C/c2cnc3c(c2)NCCC(=O)N3)[nH]c2ccccc12
[1]
  solubility: 37 µg/mL (≈ 95 µM)
[2]
  MIC: 4 µg/mL (≈ 10.3 µM)
[3]
  MIC: 0.031 µg/mL (≈ 0.0796 µM)
[4]
  MIC: 0.063 µg/mL (≈ 0.162 µM)
[5]
  solubility: 39 µg/mL (≈ 100 µM)
[6]
  MIC: 2 µg/mL (≈ 5.14 µM)
[7]
  IC50: 840 nM

## Cc1c(CN(C)C(=O)/C=C/c2cnc3c(c2)NCCCN3)oc2ccccc12
[1]
  solubility: 29 µg/mL (≈ 77 µM)
[2]
  MIC: ≤ 0.063 µg/mL
[3]
  MIC: ≤ 0.016 µg/mL
[4]
  MIC: 0.031 µg/mL (≈ 0.0823 µM)
[5]
  solubility: > 100 µg/mL
[6]
  MIC: 0.5 µg/mL (≈ 1.33 µM)
[7]
  IC50: 12 nM

## Cc1c(CN(C)C(=O)/C=C/c2cnc3c(c2)CNC(=O)CCN3)oc2ccccc12
[1]
  solubility: 17 µg/mL (≈ 42 µM)
[2]
  MIC: ≤ 0.063 µg/mL
[3]
  MIC: ≤ 0.016 µg/mL
[4]
  MIC: 0.031 µg/mL (≈ 0.0766 µM)
[5]
  solubility: 46 µg/mL (≈ 114 µM)
[6]
  MIC: 0.5 µg/mL (≈ 1.24 µM)
[7]
  IC50: 30 nM

## CN(Cc1cc2ccccc2n1C)C(=O)/C=C/c1cnc2c(c1)NCCC(=O)N2
[1]
  solubility: 33 µg/mL (≈ 84.7 µM)
[2]
  MIC: 1 µg/mL (≈ 2.57 µM)
[3]
  MIC: 0.25 µg/mL (≈ 0.642 µM)
[4]
  MIC: 0.125 µg/mL (≈ 0.321 µM)
[5]
  solubility: 25 µg/mL (≈ 64.2 µM)
[6]
  MIC: 1 µg/mL (≈ 2.57 µM)
[7]
  IC50: 136 nM

## Cc1c(CN(C)C(=O)/C=C/c2cnc3c(c2)CNCCCN3)oc2ccccc12
[1]
  solubility: 210 µg/mL (≈ 538 µM)
[2]
  MIC: 8 µg/mL (≈ 20.5 µM)
[3]
  MIC: 0.25 µg/mL (≈ 0.64 µM)
[4]
  MIC: 0.5 µg/mL (≈ 1.28 µM)
[5]
  solubility: 1400 µg/mL (≈ 3590 µM)
[6]
  MIC: 8 µg/mL (≈ 20.5 µM)
[7]
  IC50: 16 nM

## Cc1c(CN(C)C(=O)/C=C/c2cnc3c(c2)CNC(=O)CN3)oc2ccccc12
[2]
  MIC: ≤ 0.063 µg/mL
[3]
  MIC: ≤ 0.063 µg/mL
[4]
  MIC: ≤ 0.063 µg/mL
[6]
  MIC: 4 µg/mL (≈ 10.2 µM)
[7]
  IC50: 39 nM

## Cc1c(CN(C)C(=O)/C=C/c2cnc3c(c2)CNCC(=O)N3)oc2ccccc12
[1]
  solubility: 20 µg/mL (≈ 51.2 µM)
[2]
  MIC: ≤ 0.063 µg/mL
[3]
  MIC: ≤ 0.063 µg/mL
[4]
  MIC: ≤ 0.063 µg/mL
[5]
  solubility: 170 µg/mL (≈ 435 µM)
[6]
  MIC: 0.125 µg/mL (≈ 0.32 µM)
[7]
  IC50: 29 nM

## Cc1c(CN(C)C(=O)/C=C/c2cnc3c(c2)CNCCN3)sc2ccccc12
[1]
  solubility: 33 µg/mL (≈ 84.1 µM)
[2]
  MIC: ≤ 0.063 µg/mL
[3]
  MIC: ≤ 0.016 µg/mL
[4]
  MIC: 0.031 µg/mL (≈ 0.079 µM)
[5]
  solubility: 100 µg/mL (≈ 255 µM)
[6]
  MIC: 2 µg/mL (≈ 5.1 µM)
[7]
  IC50: 9 nM

## CN(Cc1cc2ccccc2n1C)C(=O)/C=C/c1cnc2c(c1)CNCC(=O)N2
[1]
  solubility: 82 µg/mL (≈ 211 µM)
[2]
  MIC: 1 µg/mL (≈ 2.57 µM)
[3]
  MIC: 0.125 µg/mL (≈ 0.321 µM)
[4]
  MIC: 0.125 µg/mL (≈ 0.321 µM)
[5]
  solubility: > 100 µg/mL
[6]
  MIC: 1 µg/mL (≈ 2.57 µM)
[8]
  Activity: Active
[7]
  IC50: 330 nM

## CN(Cc1cc2ccccc2n1C)C(=O)/C=C/c1cnc2c(c1)CCC(=O)N2
[1]
  solubility: 5.6 µg/mL (≈ 15 µM)
[2]
  MIC: ≤ 0.063 µg/mL
[3]
  MIC: ≤ 0.016 µg/mL
[4]
  MIC: 0.031 µg/mL (≈ 0.0828 µM)
[5]
  solubility: 6.2 µg/mL (≈ 16.6 µM)
[6]
  MIC: 0.5 µg/mL (≈ 1.34 µM)
[7]
  IC50: 150 nM

## Cc1c(CN(C)C(=O)/C=C/c2cnc3c(c2)CNCCN3)oc2ccccc12
[1]
  solubility: 440 µg/mL (≈ 1170 µM)
[2]
  MIC: ≤ 0.063 µg/mL
[3]
  MIC: 0.063 µg/mL (≈ 0.167 µM)
[4]
  MIC: 0.063 µg/mL (≈ 0.167 µM)
[5]
  solubility: > 650 µg/mL
[6]
  MIC: 4 µg/mL (≈ 10.6 µM)
[7]
  IC50: 14 nM

## Cc1c(CN(C)C(=O)/C=C/c2cnc3c(c2)NCCC(=O)N3)oc2ccccc12
[1]
  solubility: 1.7 µg/mL (≈ 4.35 µM)
[2]
  MIC: ≤ 0.063 µg/mL
[3]
  MIC: ≤ 0.016 µg/mL
[4]
  MIC: ≤ 0.016 µg/mL
[5]
  solubility: 1.5 µg/mL (≈ 3.84 µM)
[6]
  MIC: ≤ 0.016 µg/mL
[7]
  IC50: 25 nM
